Results published in PMC9150124, “Design of a Potent, Selective, and Brain-Penetrant Inhibitor of Wnt-Deactivating Enzyme Notum by Optimization of a Crystallographic Fragment Hit” (Journal of Medicinal Chemistry, 2022).

Key:
Assay in all cases: SelectScreen kinase profiling, SSBK LanthaScreen Binding SP Technology
[1] = biological target: kinase named in conditions (Homo sapiens, UniProt O00238); conditions: BMPR1B (ALK6), 10 μM
Method: (§1) Kinase selectivity screening was performed by Thermo Fisher Scientific (Paisley, U.K.) in their SelectScreen Biochemical Kinase Profiling Service. Assay information and data are presented in the Supporting Information.
(§2) Kinase selectivity screening was performed by ThermoFisher Scientific (Paisley, U.K.) in their SelectScreenTM
(§3) Biochemical Kinase Profiling service .
(§4) Illustration reproduced courtesy of Cell Signaling technology, Inc.
(§5) (B) Illustration of phylogenetic tree of kinases screened.

[2] = biological target: kinase named in conditions (Homo sapiens, UniProt O00311); conditions: CDC7/DBF4, 10 μM
Method: as §1, §2, §3, §4, §5

[3] = biological target: kinase named in conditions (Homo sapiens, UniProt O14936); conditions: CASK, 10 μM
Method: as §1, §2, §3, §4, §5

[4] = biological target: kinase named in conditions (Homo sapiens, UniProt O43353); conditions: RIPK2, 10 μM
Method: as §1, §2, §3, §4, §5

[5] = biological target: kinase named in conditions (Homo sapiens, UniProt O75385); conditions: ULK1, 10 μM
Method: as §1, §2, §3, §4, §5

[6] = biological target: kinase named in conditions (Homo sapiens, UniProt O94921); conditions: CDK14 (PFTK1)/cyclin Y, 10 μM
Method: as §1, §2, §3, §4, §5

[7] = biological target: kinase named in conditions (Homo sapiens, UniProt P07949, M918T); conditions: RET M918T, 10 μM
Method: as §1, §2, §3, §4, §5

[8] = biological target: kinase named in conditions (Homo sapiens, UniProt P10721, N822K); conditions: KIT N822K, 10 μM
Method: as §1, §2, §3, §4, §5

[9] = biological target: kinase named in conditions (Homo sapiens, UniProt P10721, Y823D); conditions: KIT Y823D, 10 μM
Method: as §1, §2, §3, §4, §5

[10] = biological target: kinase named in conditions (Homo sapiens, UniProt P15056); conditions: BRAF, 10 μM
Method: as §1, §2, §3, §4, §5

[11] = biological target: kinase named in conditions (Homo sapiens, UniProt P24941)
Method: as §1, §2, §3, §4, §5

[12] = biological target: kinase named in conditions (Homo sapiens, UniProt P27037); conditions: ACVR2A, 10 μM
Method: as §1, §2, §3, §4, §5

[13] = biological target: kinase named in conditions (Homo sapiens, UniProt P29320); conditions: EPHA3, 10 μM
Method: as §1, §2, §3, §4, §5

[14] = biological target: kinase named in conditions (Homo sapiens, UniProt P36894); conditions: BMPR1A (ALK3), 10 μM
Method: as §1, §2, §3, §4, §5

[15] = biological target: kinase named in conditions (Homo sapiens, UniProt P45984); conditions: MAPK9 (JNK2), 10 μM
Method: as §1, §2, §3, §4, §5

[16] = biological target: kinase named in conditions (Homo sapiens, UniProt P45985); conditions: MAP2K4 (MEK4), 10 μM
Method: as §1, §2, §3, §4, §5

[17] = biological target: kinase named in conditions (Homo sapiens, UniProt P50750); conditions: 10 μM
Method: as §1, §2, §3, §4, §5

[18] = biological target: kinase named in conditions (Homo sapiens, UniProt P54646); conditions: 10 μM
Method: as §1, §2, §3, §4, §5

[19] = biological target: kinase named in conditions (Homo sapiens, UniProt P57058); conditions: HUNK, 10 μM
Method: as §1, §2, §3, §4, §5

[20] = biological target: kinase named in conditions (Homo sapiens, UniProt Q13555); conditions: CAMK2G (CaMKII gamma), 10 μM
Method: as §1, §2, §3, §4, §5

[21] = biological target: kinase named in conditions (Homo sapiens, UniProt Q15375); conditions: EPHA7, 10 μM
Method: as §1, §2, §3, §4, §5

[22] = biological target: kinase named in conditions (Homo sapiens, UniProt Q15746); conditions: MYLK (MLCK), 10 μM
Method: as §1, §2, §3, §4, §5

[23] = biological target: kinase named in conditions (Homo sapiens, UniProt Q32MK0); conditions: MLCK (MLCK2), 10 μM
Method: as §1, §2, §3, §4, §5

[24] = biological target: kinase named in conditions (Homo sapiens, UniProt Q5TCX8); conditions: MLK4, 10 μM
Method: as §1, §2, §3, §4, §5

[25] = biological target: kinase named in conditions (Homo sapiens, UniProt Q6PHR2); conditions: ULK3, 10 μM
Method: as §1, §2, §3, §4, §5

[26] = biological target: kinase named in conditions (Homo sapiens, UniProt Q86UE8); conditions: TLK2, 10 μM
Method: as §1, §2, §3, §4, §5

[27] = biological target: kinase named in conditions (Homo sapiens, UniProt Q86Y07); conditions: VRK2, 10 μM
Method: as §1, §2, §3, §4, §5

[28] = biological target: kinase named in conditions (Homo sapiens, UniProt Q8NI60); conditions: ADCK3, 10 μM
Method: as §1, §2, §3, §4, §5

[29] = biological target: kinase named in conditions (Homo sapiens, UniProt Q96GX5); conditions: MASTL, 10 μM
Method: as §1, §2, §3, §4, §5

[30] = biological target: kinase named in conditions (Homo sapiens, UniProt Q9H093); conditions: NUAK2, 10 μM
Method: as §1, §2, §3, §4, §5

[31] = biological target: kinase named in conditions (Homo sapiens, UniProt Q9H2K8); conditions: TAOK3 (JIK), 10 μM
Method: as §1, §2, §3, §4, §5

[32] = biological target: kinase named in conditions (Homo sapiens, UniProt Q9H4A3); conditions: WNK1, 10 μM
Method: as §1, §2, §3, §4, §5

[33] = biological target: kinase named in conditions (Homo sapiens, UniProt Q9Y2H1); conditions: STK38L (NDR2), 10 μM
Method: as §1, §2, §3, §4, §5

[34] = biological target: kinase named in conditions (Homo sapiens, UniProt Q9Y2U5); conditions: MAP3K2 (MEKK2), 10 μM
Method: as §1, §2, §3, §4, §5

Chain of kinase named in conditions (Homo sapiens, UniProt P50750) (P50750 whole entry): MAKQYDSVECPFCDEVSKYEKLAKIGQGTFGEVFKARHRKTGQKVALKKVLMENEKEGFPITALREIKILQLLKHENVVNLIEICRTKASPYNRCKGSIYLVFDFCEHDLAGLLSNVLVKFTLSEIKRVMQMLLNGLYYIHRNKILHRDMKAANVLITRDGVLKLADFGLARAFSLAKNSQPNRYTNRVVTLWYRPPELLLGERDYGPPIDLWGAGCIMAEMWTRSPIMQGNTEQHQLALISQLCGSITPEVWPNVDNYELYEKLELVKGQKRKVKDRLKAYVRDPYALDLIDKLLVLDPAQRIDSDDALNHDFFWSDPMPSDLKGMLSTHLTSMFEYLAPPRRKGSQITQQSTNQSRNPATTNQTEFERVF
Chain of kinase named in conditions (Homo sapiens, UniProt P54646) (P54646 whole entry): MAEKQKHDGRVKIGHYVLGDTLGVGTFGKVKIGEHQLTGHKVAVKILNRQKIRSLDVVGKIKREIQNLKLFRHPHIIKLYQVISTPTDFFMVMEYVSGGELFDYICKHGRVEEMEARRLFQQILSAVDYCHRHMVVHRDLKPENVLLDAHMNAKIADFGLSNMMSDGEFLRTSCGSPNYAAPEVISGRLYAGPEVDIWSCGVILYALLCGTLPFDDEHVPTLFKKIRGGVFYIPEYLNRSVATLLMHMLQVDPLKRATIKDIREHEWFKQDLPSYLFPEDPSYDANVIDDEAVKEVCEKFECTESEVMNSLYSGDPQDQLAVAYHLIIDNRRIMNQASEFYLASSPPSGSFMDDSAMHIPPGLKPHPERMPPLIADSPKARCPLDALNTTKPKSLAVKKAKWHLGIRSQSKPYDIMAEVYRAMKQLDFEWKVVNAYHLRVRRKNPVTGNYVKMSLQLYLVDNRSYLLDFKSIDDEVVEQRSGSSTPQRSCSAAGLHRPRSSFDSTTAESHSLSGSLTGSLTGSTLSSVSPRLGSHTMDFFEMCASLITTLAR
Chain of kinase named in conditions (Homo sapiens, UniProt O00238) (O00238 14-502): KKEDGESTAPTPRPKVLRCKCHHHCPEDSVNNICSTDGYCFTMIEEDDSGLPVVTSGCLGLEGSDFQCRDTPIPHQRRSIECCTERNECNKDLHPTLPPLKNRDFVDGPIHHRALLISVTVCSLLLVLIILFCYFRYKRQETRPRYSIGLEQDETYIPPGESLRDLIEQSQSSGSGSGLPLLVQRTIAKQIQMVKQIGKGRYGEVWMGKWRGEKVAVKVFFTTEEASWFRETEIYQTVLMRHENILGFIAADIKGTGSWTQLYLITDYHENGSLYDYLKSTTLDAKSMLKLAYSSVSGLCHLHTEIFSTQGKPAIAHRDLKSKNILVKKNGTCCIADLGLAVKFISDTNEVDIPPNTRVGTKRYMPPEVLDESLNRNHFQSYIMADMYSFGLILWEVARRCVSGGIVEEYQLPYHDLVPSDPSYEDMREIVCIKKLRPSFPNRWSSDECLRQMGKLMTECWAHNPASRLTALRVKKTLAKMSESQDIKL
Chain of kinase named in conditions (Homo sapiens, UniProt Q6PHR2) (Q6PHR2 whole entry): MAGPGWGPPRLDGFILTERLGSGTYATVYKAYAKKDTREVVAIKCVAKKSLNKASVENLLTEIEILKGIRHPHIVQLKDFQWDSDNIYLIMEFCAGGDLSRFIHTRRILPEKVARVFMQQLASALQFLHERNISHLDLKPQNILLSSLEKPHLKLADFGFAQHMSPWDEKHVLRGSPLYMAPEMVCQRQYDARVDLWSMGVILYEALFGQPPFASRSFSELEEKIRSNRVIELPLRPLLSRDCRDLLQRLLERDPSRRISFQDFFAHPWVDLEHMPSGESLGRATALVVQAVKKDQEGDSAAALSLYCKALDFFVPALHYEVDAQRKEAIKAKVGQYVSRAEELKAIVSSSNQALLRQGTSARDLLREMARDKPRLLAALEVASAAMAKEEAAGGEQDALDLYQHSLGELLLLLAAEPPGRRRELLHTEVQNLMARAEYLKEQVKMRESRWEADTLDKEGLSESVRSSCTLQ
Chain of kinase named in conditions (Homo sapiens, UniProt Q9H2K8) (Q9H2K8 whole entry): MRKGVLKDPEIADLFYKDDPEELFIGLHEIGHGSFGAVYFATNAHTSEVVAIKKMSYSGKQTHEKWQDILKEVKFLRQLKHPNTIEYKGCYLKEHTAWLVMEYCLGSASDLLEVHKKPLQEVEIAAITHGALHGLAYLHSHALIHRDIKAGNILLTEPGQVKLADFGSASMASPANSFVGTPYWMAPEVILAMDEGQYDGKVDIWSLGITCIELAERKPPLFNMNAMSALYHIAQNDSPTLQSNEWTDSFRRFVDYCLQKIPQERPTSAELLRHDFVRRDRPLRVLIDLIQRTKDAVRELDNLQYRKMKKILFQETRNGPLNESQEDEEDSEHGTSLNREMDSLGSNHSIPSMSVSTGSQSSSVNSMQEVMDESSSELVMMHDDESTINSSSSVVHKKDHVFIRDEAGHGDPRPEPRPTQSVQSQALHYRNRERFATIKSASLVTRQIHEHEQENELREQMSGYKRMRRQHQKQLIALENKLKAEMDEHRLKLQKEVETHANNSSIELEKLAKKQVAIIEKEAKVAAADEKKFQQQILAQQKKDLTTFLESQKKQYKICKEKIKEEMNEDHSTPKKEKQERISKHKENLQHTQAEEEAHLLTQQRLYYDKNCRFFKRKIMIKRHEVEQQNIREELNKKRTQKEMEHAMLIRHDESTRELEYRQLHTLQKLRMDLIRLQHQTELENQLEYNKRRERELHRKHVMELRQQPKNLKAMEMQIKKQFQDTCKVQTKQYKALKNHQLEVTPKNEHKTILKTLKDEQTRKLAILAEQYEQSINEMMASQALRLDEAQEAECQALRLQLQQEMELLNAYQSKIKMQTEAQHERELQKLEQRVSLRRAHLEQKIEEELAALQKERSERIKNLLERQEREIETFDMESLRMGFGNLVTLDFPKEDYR
Chain of kinase named in conditions (Homo sapiens, UniProt P10721, Y823D) (P10721 26-976 Y823D): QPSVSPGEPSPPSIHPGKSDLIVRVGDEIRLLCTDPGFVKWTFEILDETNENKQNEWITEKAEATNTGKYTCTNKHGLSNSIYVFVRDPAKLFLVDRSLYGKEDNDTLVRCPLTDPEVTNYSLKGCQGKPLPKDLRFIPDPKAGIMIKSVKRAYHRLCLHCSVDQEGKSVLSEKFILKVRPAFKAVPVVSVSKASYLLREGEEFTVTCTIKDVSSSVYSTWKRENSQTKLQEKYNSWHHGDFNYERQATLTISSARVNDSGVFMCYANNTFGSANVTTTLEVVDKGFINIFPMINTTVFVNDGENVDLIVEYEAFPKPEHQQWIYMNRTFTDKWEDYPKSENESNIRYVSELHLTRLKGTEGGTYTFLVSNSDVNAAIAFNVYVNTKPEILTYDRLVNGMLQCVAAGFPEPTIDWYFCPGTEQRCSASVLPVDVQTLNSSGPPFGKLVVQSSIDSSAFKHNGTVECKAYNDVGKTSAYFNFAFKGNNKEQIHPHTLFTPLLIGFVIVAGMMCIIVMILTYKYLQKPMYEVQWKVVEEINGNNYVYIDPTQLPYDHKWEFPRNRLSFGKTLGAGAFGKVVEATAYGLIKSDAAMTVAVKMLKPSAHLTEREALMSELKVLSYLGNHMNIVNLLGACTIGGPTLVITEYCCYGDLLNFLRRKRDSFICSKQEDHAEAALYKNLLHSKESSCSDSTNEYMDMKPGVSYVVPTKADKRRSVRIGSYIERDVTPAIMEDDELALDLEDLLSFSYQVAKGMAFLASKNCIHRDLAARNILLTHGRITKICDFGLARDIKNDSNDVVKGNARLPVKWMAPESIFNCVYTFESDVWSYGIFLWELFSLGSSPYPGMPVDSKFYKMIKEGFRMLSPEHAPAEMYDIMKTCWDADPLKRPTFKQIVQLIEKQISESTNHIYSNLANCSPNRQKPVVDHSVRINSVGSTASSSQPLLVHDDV
Chain of kinase named in conditions (Homo sapiens, UniProt P27037) (P27037 20-513): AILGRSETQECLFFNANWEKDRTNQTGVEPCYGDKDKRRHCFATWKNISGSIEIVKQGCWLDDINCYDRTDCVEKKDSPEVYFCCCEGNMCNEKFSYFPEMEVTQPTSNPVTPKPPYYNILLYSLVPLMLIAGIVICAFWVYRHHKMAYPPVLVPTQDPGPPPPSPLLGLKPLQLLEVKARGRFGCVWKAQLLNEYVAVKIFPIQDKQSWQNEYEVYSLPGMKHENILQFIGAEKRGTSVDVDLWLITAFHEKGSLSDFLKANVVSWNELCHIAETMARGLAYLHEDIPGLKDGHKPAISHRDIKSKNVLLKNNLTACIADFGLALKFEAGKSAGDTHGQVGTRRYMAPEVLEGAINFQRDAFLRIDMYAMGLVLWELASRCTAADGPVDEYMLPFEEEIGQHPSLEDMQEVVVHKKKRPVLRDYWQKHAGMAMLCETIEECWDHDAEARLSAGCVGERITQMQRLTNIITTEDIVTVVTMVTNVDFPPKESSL
Chain of kinase named in conditions (Homo sapiens, UniProt Q9Y2H1) (Q9Y2H1 whole entry): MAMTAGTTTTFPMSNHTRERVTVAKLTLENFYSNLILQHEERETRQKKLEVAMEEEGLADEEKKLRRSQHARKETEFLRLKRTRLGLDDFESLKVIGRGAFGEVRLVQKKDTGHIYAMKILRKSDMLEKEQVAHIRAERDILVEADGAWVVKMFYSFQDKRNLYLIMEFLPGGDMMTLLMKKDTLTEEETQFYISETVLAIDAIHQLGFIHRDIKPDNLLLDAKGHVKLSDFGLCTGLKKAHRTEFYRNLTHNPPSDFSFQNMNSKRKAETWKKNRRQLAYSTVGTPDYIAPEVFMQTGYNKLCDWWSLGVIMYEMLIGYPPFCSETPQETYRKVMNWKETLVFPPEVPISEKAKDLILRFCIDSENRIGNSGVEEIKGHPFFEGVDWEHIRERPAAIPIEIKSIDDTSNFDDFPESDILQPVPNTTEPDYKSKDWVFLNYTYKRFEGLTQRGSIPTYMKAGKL
Chain of kinase named in conditions (Homo sapiens, UniProt P10721, N822K) (P10721 26-976 N822K): as the sequence (P10721 26-976 Y823D) above, with N797K, D798Y counted along it

## FC(F)(F)c1c(Cl)ccc(-n2ccnn2)c1Cl [8l, 1-(2,4-Dichloro-3-(trifluoromethyl)phenyl)-1H-1,2,3-triazole]
[1]
  inhibition at 10 µM: 0%
[2]
  inhibition at 10 µM: -15%
[3]
  inhibition at 10 µM: 18%
[4]
  inhibition at 10 µM: 5%
[5]
  inhibition at 10 µM: -2%
[6]
  inhibition at 10 µM: 43%
[7]
  inhibition at 10 µM: 9%
[8]
  inhibition at 10 µM: -3%
[9]
  inhibition at 10 µM: 6%
[10]
  inhibition at 10 µM: 7%
[11]; CDK2/cyclin A1, 10 μM
  inhibition at 10 µM: 3%
[11]; CDK2/cyclin E1, 10 μM
  inhibition at 10 µM: -4%
[11]; CDK2/cyclin O, 10 μM
  inhibition at 10 µM: 7%
[12]
  inhibition at 10 µM: 4%
[13]
  inhibition at 10 µM: 7%
[14]
  inhibition at 10 µM: 6%
[15]
  inhibition at 10 µM: -5%
[16]
  inhibition at 10 µM: -2%
[17]; CDK9 (Inactive)
  inhibition at 10 µM: -5%
[17]; CDK9/cyclin K
  inhibition at 10 µM: -10%
[18]; AMPK (A2/B2/G1)
  inhibition at 10 µM: 12%
[18]; AMPK (A2/B2/G2)
  inhibition at 10 µM: 24%
[19]
  inhibition at 10 µM: 1%
[20]
  inhibition at 10 µM: 1%
[21]
  inhibition at 10 µM: 0%
[22]
  inhibition at 10 µM: 3%
[23]
  inhibition at 10 µM: -3%
[24]
  inhibition at 10 µM: 11%
[25]
  inhibition at 10 µM: -4%
[26]
  inhibition at 10 µM: 11%
[27]
  inhibition at 10 µM: -11%
[28]
  inhibition at 10 µM: 12%
[29]
  inhibition at 10 µM: -8%
[30]
  inhibition at 10 µM: 7%
[31]
  inhibition at 10 µM: -5%
[32]
  inhibition at 10 µM: 2%
[33]
  inhibition at 10 µM: 15%
[34]
  inhibition at 10 µM: 11%
